# Source: ChEMBL document CHEMBL1777793, “Synthesis of biotinylated muramyl tripeptides with NOD2-stimulating activity” (Bioorg Med Chem Lett, 2011)
# Calls of active or inactive are those of the source. The rule behind the calls is not given here.
# Biological target: Nucleotide-binding oligomerization domain-containing protein 2 (Homo sapiens) (UniProt Q9HC29)
# Experiment: Activation of NOD2 expressed in HEK293 cells assessed as increase in IL8 secretion measured at 0.01 to 0.7 uM after 18 hrs by ELISA
# Assay type: cell-based
# Chain of Nucleotide-binding oligomerization domain-containing protein 2 (Homo sapiens) (Q9HC29 whole entry, the tested form may be a part): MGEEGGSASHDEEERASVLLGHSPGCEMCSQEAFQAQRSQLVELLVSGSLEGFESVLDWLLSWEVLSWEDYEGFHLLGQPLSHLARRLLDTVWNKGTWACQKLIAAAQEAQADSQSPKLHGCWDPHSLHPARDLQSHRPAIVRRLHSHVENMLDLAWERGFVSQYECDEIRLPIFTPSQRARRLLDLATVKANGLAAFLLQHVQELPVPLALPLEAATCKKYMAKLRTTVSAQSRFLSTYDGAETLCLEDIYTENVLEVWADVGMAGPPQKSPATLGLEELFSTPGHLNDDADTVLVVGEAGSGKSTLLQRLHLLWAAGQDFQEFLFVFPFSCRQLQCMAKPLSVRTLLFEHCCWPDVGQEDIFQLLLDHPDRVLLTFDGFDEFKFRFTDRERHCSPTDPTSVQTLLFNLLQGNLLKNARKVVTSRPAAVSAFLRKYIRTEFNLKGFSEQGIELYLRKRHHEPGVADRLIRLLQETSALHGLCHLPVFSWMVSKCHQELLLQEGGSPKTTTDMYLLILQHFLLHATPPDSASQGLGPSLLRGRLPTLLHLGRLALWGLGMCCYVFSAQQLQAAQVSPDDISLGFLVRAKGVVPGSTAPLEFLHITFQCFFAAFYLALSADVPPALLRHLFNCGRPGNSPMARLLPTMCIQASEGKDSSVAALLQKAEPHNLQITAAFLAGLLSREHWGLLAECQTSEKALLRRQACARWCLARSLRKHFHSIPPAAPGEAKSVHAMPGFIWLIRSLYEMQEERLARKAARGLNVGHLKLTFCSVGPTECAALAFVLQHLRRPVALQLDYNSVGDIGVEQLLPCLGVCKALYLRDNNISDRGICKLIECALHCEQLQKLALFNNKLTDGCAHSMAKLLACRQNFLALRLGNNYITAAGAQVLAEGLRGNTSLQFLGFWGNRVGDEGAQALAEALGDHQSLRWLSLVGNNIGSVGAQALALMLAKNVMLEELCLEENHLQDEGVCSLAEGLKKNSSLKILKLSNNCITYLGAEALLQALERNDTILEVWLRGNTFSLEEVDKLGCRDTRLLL
row,SMILES,Activity
1,CC(=O)N[C@H]1[C@@H](OP(=O)(O)OP(=O)(O)OC[C@H]2O[C@@H](n3ccc(=O)[nH]c3=O)[C@H](O)[C@@H]2O)O[C@H](CO)[C@@H](O)[C@@H]1O[C@H](C)C(=O)N[C@@H](C)C(=O)N[C@H](CCC(=O)N[C@@H](CCCCNC(=O)CCCCCNC(=O)CCCCCNC(=O)CCCC[C@@H]1SC[C@@H]2NC(=O)N[C@@H]21)C(=O)O)C(=O)O,Active
2,CC(=O)N[C@H]1C(O)O[C@H](COC(=O)CCCCCNC(=O)CCCCCNC(=O)CCCCCNC(=O)CCCC[C@@H]2SC[C@@H]3NC(=O)N[C@@H]32)[C@@H](O)[C@@H]1O[C@H](C)C(=O)N[C@@H](C)C(=O)N[C@H](CCC(=O)O)C(N)=O (some centres not stated),Active
3,CC(=O)N[C@H]1[C@@H](OP(=O)(O)OP(=O)(O)OC[C@H]2O[C@@H](n3ccc(=O)[nH]c3=O)[C@H](O)[C@@H]2O)O[C@H](CO)[C@@H](O)[C@@H]1O[C@H](C)C(=O)N[C@@H](C)C(=O)N[C@H](CCC(=O)N[C@@H](CCC[C@@H](N)C(=O)O)C(=O)O)C(=O)O,Active
4,CC(=O)N[C@H]1C(O)O[C@H](CO)[C@@H](O)[C@@H]1O[C@H](C)C(=O)N[C@@H](C)C(=O)N[C@H](CCC(=O)N[C@@H](CCCCNC(=O)CCCCCNC(=O)CCCCCNC(=O)CCCC[C@@H]1SC[C@@H]2NC(=O)N[C@@H]21)C(=O)O)C(=O)O (some centres not stated),Active
5,CC(=O)N[C@H]1[C@@H](OP(=O)(O)OP(=O)(O)OC[C@H]2O[C@@H](n3ccc(=O)[nH]c3=O)[C@H](O)[C@@H]2O)O[C@H](CO)[C@@H](O)[C@@H]1O[C@H](C)C(=O)N[C@@H](C)C(=O)N[C@H](CCC(=O)N[C@@H](CCC[C@@H](NC(=O)CCCC[C@@H]1SC[C@@H]2NC(=O)N[C@@H]21)C(=O)O)C(=O)O)C(=O)O,Active
6,CC(=O)N[C@H]1[C@@H](OP(=O)(O)OP(=O)(O)OC[C@H]2O[C@@H](n3ccc(=O)[nH]c3=O)[C@H](O)[C@@H]2O)O[C@H](CO)[C@@H](O)[C@@H]1O[C@H](C)C(=O)N[C@@H](C)C(=O)N[C@H](CCC(=O)N[C@@H](CCCCNC(=O)CCCC[C@@H]1SC[C@@H]2NC(=O)N[C@@H]21)C(=O)O)C(=O)O,Active

# Further lines, results first:
row,Activity,SMILES
1,Active,CC(=O)N[C@H]1C(O)O[C@H](CO)[C@@H](O)[C@@H]1O[C@H](C)C(=O)N[C@@H](C)C(=O)N[C@H](CCC(=O)O)C(N)=O (some centres not stated)
2,Active,CC(=O)N[C@H]1[C@@H](OP(=O)(O)OP(=O)(O)OC[C@H]2O[C@@H](n3ccc(=O)[nH]c3=O)[C@H](O)[C@@H]2O)O[C@H](CO)[C@@H](O)[C@@H]1O[C@H](C)C(=O)N[C@@H](C)C(=O)N[C@H](CCC(=O)N[C@@H](CCCCN)C(=O)O)C(=O)O
3,inactive,CC(=O)N[C@H]1C(O)O[C@H](CO)[C@@H](O)[C@@H]1O[C@H](C)C(=O)N[C@@H](C)C(=O)N[C@H](CCC(=O)N[C@@H](CCC[C@@H](N)C(=O)O)C(=O)O)C(=O)O (some centres not stated)
4,Active,CC(=O)N[C@H]1C(O)O[C@H](CO)[C@@H](O)[C@@H]1O[C@H](C)C(=O)N[C@@H](C)C(=O)N[C@H](CCC(=O)N[C@@H](CCCCNC(=O)CCCC[C@@H]1SC[C@@H]2NC(=O)N[C@@H]21)C(=O)O)C(=O)O (some centres not stated)
5,Active,CC(=O)N[C@H]1C(O)O[C@H](CO)[C@@H](O)[C@@H]1O[C@H](C)C(=O)N[C@@H](C)C(=O)N[C@H](CCC(=O)N[C@@H](CCCCN)C(=O)O)C(=O)O (some centres not stated)
6,inactive,CC(=O)N[C@H]1C(O)O[C@H](CO)[C@@H](O)[C@@H]1O[C@H](C)C(=O)N[C@@H](C)C(=O)N[C@H](CCC(=O)N[C@@H](CCC[C@@H](NC(=O)CCCC[C@@H]1SC[C@@H]2NC(=O)N[C@@H]21)C(=O)O)C(=O)O)C(=O)O (some centres not stated)
